# Assay results as given in the supplement of paper PMC10307832.
# Assays:
# Test in all cases: relative viability (nuclei count vs DMSO), 5 days (fraction); higher = more cells survive
# CAL-12T = tested on: CAL-12T
# How it was run: (§1)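 Lung cancer cell lines in 1536-well plates were dosed by pin tool the day after seeding, either with one drug alone or with a fixed anchor-drug dose plus five library-drug doses (not always all listed) in √10 steps. After 5 days, cells were fixed and their nuclei stained in one step (final 0.05% Triton X-100, 1% formaldehyde, 1 ug/ml Hoechst), then counted on 4× images. Relative viability is the nuclei count in treated wells divided by that in vehicle wells. Values are medians of duplicate plates.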
# LK-2 = tested on: LK-2
# How it was run: as §1
# NCI-H1793 = tested on: NCI-H1793
# How it was run: as §1
# NCI-H1944 = tested on: NCI-H1944
# How it was run: as §1
# EKVX = tested on: EKVX
# How it was run: as §1
# NCI-H2228 = tested on: NCI-H2228
# How it was run: as §1
# NCI-H661 = tested on: NCI-H661
# How it was run: as §1
# SK-MES-1 = tested on: SK-MES-1
# How it was run: as §1
# NCI-H1915 = tested on: NCI-H1915
# How it was run: as §1
# LC-2-ad = tested on: LC-2-ad
# How it was run: as §1
# SK-LU-1 = tested on: SK-LU-1
# How it was run: as §1
# COR-L 105 = tested on: COR-L 105
# How it was run: as §1
# NCI-H1395 = tested on: NCI-H1395
# How it was run: as §1
# EMC-BAC-2 = tested on: EMC-BAC-2
# How it was run: as §1
# LXF-289 = tested on: LXF-289
# How it was run: as §1
# H3255 = tested on: H3255
# How it was run: as §1
# NCI-H1437 = tested on: NCI-H1437
# How it was run: as §1
# NCI-H1651 = tested on: NCI-H1651
# How it was run: as §1
# PC-3 [JPC-3] = tested on: PC-3 [JPC-3]
# How it was run: as §1
# NCI-H2085 = tested on: NCI-H2085
# How it was run: as §1
# NCI-H2087 = tested on: NCI-H2087
# How it was run: as §1
# NCI-H2347 = tested on: NCI-H2347
# How it was run: as §1
# NCI-H1755 = tested on: NCI-H1755
# How it was run: as §1
compound,measurement,setting,value
O=c1[nH]c2ccccc2n1C1CCN(CCCC(c2ccc(F)cc2)c2ccc(F)cc2)CC1 [Pimozide] + Nc1nc2[nH]cc(CCc3ccc(C(=O)N[C@@H](CCC(=O)O)C(=O)O)cc3)c2c(=O)[nH]1 [Pemetrexed] (partner 0.2 µM),relative viability,CAL-12T; first compound 0.08 µM,1.22
same,relative viability,CAL-12T; first compound 0.253 µM,1.22
same,relative viability,CAL-12T; first compound 0.8 µM,1.14
same,relative viability,CAL-12T; first compound 2.53 µM,1.22
same,relative viability,CAL-12T; first compound 8 µM,1.11
same,relative viability,LK-2; first compound 0.08 µM,0.243
same,relative viability,LK-2; first compound 0.253 µM,0.268
same,relative viability,LK-2; first compound 0.8 µM,0.335
same,relative viability,LK-2; first compound 8 µM,0.265
same,relative viability,NCI-H1793; first compound 0.08 µM,0.807
same,relative viability,NCI-H1793; first compound 0.253 µM,0.798
same,relative viability,NCI-H1793; first compound 0.8 µM,0.8
same,relative viability,NCI-H1793; first compound 2.53 µM,0.829
same,relative viability,NCI-H1793; first compound 8 µM,0.676
same,relative viability,NCI-H1944; first compound 0.08 µM,0.68
same,relative viability,NCI-H1944; first compound 2.53 µM,0.466
same,relative viability,NCI-H1944; first compound 8 µM,0.512
same,relative viability,EKVX; first compound 0.253 µM,0.336
same,relative viability,EKVX; first compound 0.8 µM,0.362
same,relative viability,EKVX; first compound 2.53 µM,0.397
same,relative viability,EKVX; first compound 8 µM,0.412
same,relative viability,NCI-H2228; first compound 0.08 µM,0.329
same,relative viability,NCI-H2228; first compound 0.253 µM,0.369
same,relative viability,NCI-H2228; first compound 0.8 µM,0.306
same,relative viability,NCI-H2228; first compound 2.53 µM,0.334
same,relative viability,NCI-H2228; first compound 8 µM,0.229
same,relative viability,NCI-H661; first compound 0.08 µM,0.914
same,relative viability,NCI-H661; first compound 0.253 µM,0.898
same,relative viability,NCI-H661; first compound 0.8 µM,0.844
same,relative viability,NCI-H661; first compound 2.53 µM,0.877
same,relative viability,NCI-H661; first compound 8 µM,0.797
same,relative viability,SK-MES-1; first compound 0.08 µM,0.982
same,relative viability,SK-MES-1; first compound 0.253 µM,0.861
same,relative viability,SK-MES-1; first compound 0.8 µM,0.919
same,relative viability,SK-MES-1; first compound 2.53 µM,0.888
same,relative viability,SK-MES-1; first compound 8 µM,0.902
same,relative viability,NCI-H1915; first compound 0.08 µM,0.482
same,relative viability,NCI-H1915; first compound 0.253 µM,0.415
same,relative viability,NCI-H1915; first compound 2.53 µM,0.448
same,relative viability,NCI-H1915; first compound 8 µM,0.423
same,relative viability,LC-2-ad; first compound 0.08 µM,0.275
same,relative viability,LC-2-ad; first compound 0.253 µM,0.288
same,relative viability,LC-2-ad; first compound 0.8 µM,0.259
same,relative viability,LC-2-ad; first compound 2.53 µM,0.265
same,relative viability,LC-2-ad; first compound 8 µM,0.254
same,relative viability,SK-LU-1; first compound 0.08 µM,1.05
same,relative viability,SK-LU-1; first compound 0.253 µM,0.991
same,relative viability,SK-LU-1; first compound 0.8 µM,0.897
same,relative viability,SK-LU-1; first compound 2.53 µM,0.853
same,relative viability,SK-LU-1; first compound 8 µM,0.817
same,relative viability,COR-L 105; first compound 0.08 µM,0.963
same,relative viability,COR-L 105; first compound 0.253 µM,1.11
same,relative viability,COR-L 105; first compound 0.8 µM,1.07
same,relative viability,COR-L 105; first compound 2.53 µM,1.2
same,relative viability,COR-L 105; first compound 8 µM,0.954
same,relative viability,NCI-H1395; first compound 0.08 µM,0.887
same,relative viability,NCI-H1395; first compound 0.253 µM,0.825
same,relative viability,NCI-H1395; first compound 0.8 µM,0.822
same,relative viability,NCI-H1395; first compound 2.53 µM,0.823
same,relative viability,NCI-H1395; first compound 8 µM,0.831
same,relative viability,EMC-BAC-2; first compound 0.08 µM,0.464
same,relative viability,EMC-BAC-2; first compound 0.253 µM,0.462
same,relative viability,EMC-BAC-2; first compound 0.8 µM,0.392
same,relative viability,EMC-BAC-2; first compound 2.53 µM,0.428
same,relative viability,EMC-BAC-2; first compound 8 µM,0.438
same,relative viability,LXF-289; first compound 0.08 µM,0.859
same,relative viability,LXF-289; first compound 0.253 µM,0.873
same,relative viability,LXF-289; first compound 0.8 µM,0.859
same,relative viability,LXF-289; first compound 2.53 µM,0.869
same,relative viability,LXF-289; first compound 8 µM,0.874
same,relative viability,H3255; first compound 0.253 µM,0.53
same,relative viability,H3255; first compound 0.8 µM,0.503
same,relative viability,H3255; first compound 2.53 µM,0.519
same,relative viability,H3255; first compound 8 µM,0.578
same,relative viability,NCI-H1437; first compound 0.08 µM,0.354
same,relative viability,NCI-H1437; first compound 0.253 µM,0.306
same,relative viability,NCI-H1437; first compound 0.8 µM,0.274
same,relative viability,NCI-H1437; first compound 2.53 µM,0.312
same,relative viability,NCI-H1437; first compound 8 µM,0.219
same,relative viability,NCI-H1651; first compound 0.08 µM,0.603
same,relative viability,NCI-H1651; first compound 0.253 µM,0.487
same,relative viability,NCI-H1651; first compound 0.8 µM,0.697
same,relative viability,NCI-H1651; first compound 2.53 µM,0.562
same,relative viability,NCI-H1651; first compound 8 µM,0.566
same,relative viability,PC-3 [JPC-3]; first compound 0.253 µM,1.08
same,relative viability,PC-3 [JPC-3]; first compound 0.8 µM,1.04
same,relative viability,PC-3 [JPC-3]; first compound 2.53 µM,1.08
same,relative viability,PC-3 [JPC-3]; first compound 8 µM,0.985
same,relative viability,NCI-H2085; first compound 0.08 µM,0.812
same,relative viability,NCI-H2085; first compound 0.253 µM,1.01
same,relative viability,NCI-H2085; first compound 0.8 µM,0.745
same,relative viability,NCI-H2085; first compound 2.53 µM,0.938
same,relative viability,NCI-H2085; first compound 8 µM,0.735
same,relative viability,NCI-H2087; first compound 0.08 µM,0.655
same,relative viability,NCI-H2087; first compound 0.253 µM,0.608
same,relative viability,NCI-H2087; first compound 2.53 µM,0.616
same,relative viability,NCI-H2087; first compound 8 µM,0.642
same,relative viability,NCI-H2347; first compound 0.08 µM,0.406
same,relative viability,NCI-H2347; first compound 0.253 µM,0.449
same,relative viability,NCI-H2347; first compound 0.8 µM,0.42
same,relative viability,NCI-H2347; first compound 2.53 µM,0.368
same,relative viability,NCI-H2347; first compound 8 µM,0.475
same,relative viability,NCI-H1755; first compound 0.08 µM,0.707
same,relative viability,NCI-H1755; first compound 0.253 µM,0.423
same,relative viability,NCI-H1755; first compound 0.8 µM,0.516
same,relative viability,NCI-H1755; first compound 2.53 µM,0.389
same,relative viability,NCI-H1755; first compound 8 µM,0.393
